Measurements published in patent US20070270455A1, “INHIBITION OF NF-kB” (priority 2005, published 2007).

Legend:
HT1080ConALuC tumors = assay: p53-dependent luciferase reporter in xenograft tumors; type: in vivo; conditions: intraperitoneal; 24 hours; nude mice
Procedure: HT1080ConALuC cells were inoculated into two flanks of nude mice. When tumors reach 5 mm in diameter, mice were injected intraperitoneally with indicated concentrations of the drugs (mg/kg, 3 mice per group). After 24 hours mice were sacrificed, tumors were isolated, lysed in Reporter Lysis Reagent (Promega) and luciferase activity was measured in […] of tumor proteins. Bars represent fold of induction of luciferase activity in tumors, treated with drugs over luciferase activity in tumors treated with vehicle. FIG. 5B: HT1080sip53 or HT1080siGFP cells were inoculated in the left and right flank of nude mice respectively.
NIH Swiss athymic nude, male mice, 5-6 weeks old were purchased from Harlan. 5×10^6 of tumor cells were inoculated into the flank of mice in 100 μL of PBS. […] As vehicle, 50% DMSO solution in PBS was used. Tumor size was measured in three dimensions every other day.
The in vivo anti-tumor effects of aminoacridines were tested in a xenograft tumor model using HT1080 cells differing in their p53 status and carrying p53 luciferase reporters grown subcutaneously in nude mice.

RCC45ConALacZ cells = assay: p53-responsive reporter (ConALacZ) β-galactosidase assay in RCC45 cells; type: cell-based; conditions: compared with doxorubicin
Procedure: 2×10^4 of RCC45ConALacZ cells were plated into wells of 96 well plates in 200 μL of phenol-red free RPMI medium with standard additives. After overnight incubation library of chemical compounds in DMSO solution together with controls was added with the help of plastic bacterial replicators (200+/−100 nL). Final concentration of compounds was around 5 μg/ml. Negative control was DMSO, positive control was doxorubicin solution (0.2, 0.6 and 2 μM). After 24 hours lysis buffer with ONPG was added directly to the medium on ice. After 3 hours of incubation at 37° C., β-galactosidase activity was estimated by reading absorbance values Wallack 1420 plate reader (Perkin Elmer) at λ=430 nm.
For cotransfection set-up, 2×10^5 cells were plated into 6 well plates and, after overnight incubation, transfected with Lipofectamin Plus reagent (Gibco BRL) with 0.5 μg of reporter plasmids (p21-ConALuc or pNF-κBLuc) in combination with different concentrations of p53, Arf, Ss-IκB, or siHDM2 expressing plasmids. […] Luciferase activity and β-galactosidase activity was measured in lysates prepared 48 hours after transfection with Cell Lysis Buffer (Promega) by luciferase assay system (Promega) or β-galactosidase enzyme system (Promega). Luminometric and colorimetric reactions were read on the Wallack 1420 plate reader (Perkin Elmer). […]

SMILES: Nc1c2ccccc2nc2ccccc12 [9AA, 9-aminoacridine]
- activation of p53 in tumors (HT1080ConALuC tumors): capable of activating p53 in tumors
- p53 reactivation / reporter induction (in words) (RCC45ConALacZ cells): much stronger than doxorubicin
